Assay [1] relates to Hep3B hepatocellular carcinoma tumors. Type of assay: in vivo, nude mice. An excerpt: (§1) Seventy and sixty female athymic nude mice were obtained for each H1975 Non-Small Cell Lung Cancer Xenograft study and split into treatment groups consisting of 10 animals per group (2 cages of 5 mice per cage).
(§2) Preparation and subcutaneous implantation of tumor pieces: HepG2 tumors (passage 2 for HepG2 study and passage 1 for HepG2 (sub-dose CLB0137) study) or Hep3B tumors (passage 1 for Hep3B study and passage 9 for Hep3B (sub-dose CLB0137) study) were propagated in athymic nude mice and harvested from euthanized mice when they reached ˜500-900 mm^3. PDA tumors (passage 6) were propagated in SCID mice (both flanks) and harvested from euthanized mice when they reached ˜600-700 mm^3 in size. Harvested tumors were transferred to a sterile Petri dish containing RPMI-10% FBS medium or D-PBS plus penicillin/streptomycin. Enough media was added to bathe the tumor in order to ensure the viability of the transplant material. Tumors were dissected into 2 mm×2 mm cubes using a sterile scalpel. Care was taken to make the pieces as uniform in size and shape as possible. Tumor pieces were implanted into recipient mice immediately after being prepared.
(§3) Tumor Size Measurements: Tumor size was measured by digital caliper in two dimensions (in mm): maximum length (l) and maximum width (w) taken perpendicular to one another. The measurements were used to calculate tumor volume according to the formula: tumor volume=(l×w2)/2 (w<l). The value obtained by this formula is also equal to the mass of the tumor in mg. Starting 2 days after tumor implantation, tumor measurements were made every 2-3 days prior to treatment initiation and then twice per week (e.g., on Day 1 (D1, the day of treatment initiation), D4, D8, D11, D15, D18, D22, D25, D29, D32, D36, D39, D43, D46, D50, D53 and D57). Tumor measurements were collected more frequently when tumor size approached the tumor size endpoint in order to prevent passing the endpoint between scheduled measurements.
(§4) Administration of test and control articles: Mice were administered the designated solutions when the mean tumor volume per treatment group was ˜45-200 mm^3.
The volume of the dosing solution administered orally or intravenously was 8 ml/kg of body weight, Intravenous injections were performed via the tail vein. […]
(§5) Monitoring and Sample Collection: Twice daily, mice were monitored for mortality and morbidity for the duration of the experiment. […] All abnormal observations were documented and semi-quantitative scores were assigned for “body condition,” “posture,” and “activity.” Scores of 4, 3, 2, and 1 were assigned to normal conditions (4), and slightly (3), moderately (2) and severely (1) abnormal conditions, respectively. […]
(§6) Data analysis: For all study groups, maximum tumor growth inhibition was calculated for Day 11, 13, or 15 (Day X). […] For each tumor, relative tumor size was calculated relative to its size on Day 1 when treatment was initiated (i.e., fold tumor growth). […] Differences in tumor sizes between groups were determined using ANOVA analysis (GraphPad Prism 5 Software) where “*” refers to P=0.01-0.05 (significant), “**” refers to P=0.001-0.01 (very significant) and “***” refers to P<0.001 (extremely significant), Differences that were not statistically significant are indicated with “ns”. […] Tumor growth delay (T−C) was calculated by subtracting the median time for the control to reach the 1000 mm^3 size endpoint from that of the median time for the treated groups to reach the size endpoint.

Another assay concerns HepG2 and Hep3B. To be noted: HepG2 only (Hep3B is p53 null). The text has this:
Specifically, the Western blots monitored expression of spt16, SSRP1, p53, p21, P-ERK, ERK, Mcl-1, and GAPDH (control). Panel A corresponds to the tumor-bearing nude mice from the HepG2 study whereas Panel B corresponds to the tumor-bearing nude mice from the Hep3B study.
Specifically, the Western blots monitored the effect of drug treatment on expression of spt16, SSRP1, p53, p21, P-ERK, ERK, Mcl-1, and GAPDH (control) proteins, of which most are involved in cell cycle progression and regulation.

For assay [2], the system named is HepG2 hepatocellular carcinoma tumors. In words: HepG2 (sub-dose CBL0137) study. The format is in vivo, nude mice.
Text: as §1, §2, §3, §4
(§7) The volume of the dosing solution administered orally or intravenously was 8 ml/kg of body weight, Intravenous injections were performed via the tail vein. Administration of drugs was done slowly without force on the syringe.
(§8) Monitoring and Sample Collection: Twice daily, mice were monitored for mortality and morbidity for the duration of the experiment. […] All abnormal observations were documented and semi-quantitative scores were assigned for “body condition,” “posture,” and “activity.” Scores of 4, 3, 2, and 1 were assigned to normal conditions (4), and slightly (3), moderately (2) and severely (1) abnormal conditions, respectively. Cages were taken to a laminar flow hood and opened in order to clearly assess mouse activity.
Data analysis: For all study groups, maximum tumor growth inhibition was calculated for Day 11, 13, or 15 (Day X). […] For each tumor, relative tumor size was calculated relative to its size on Day 1 when treatment was initiated (i.e., fold tumor growth). To calculate the maximum tumor growth inhibition for each tumor, the following equation was used: 100−(fold tumor growth drug-treated Day X/mean fold tumor growth vehicle-treated Day X)*100. Differences in tumor sizes between groups were determined using ANOVA analysis (GraphPad Prism 5 Software) where “*” refers to P=0.01-0.05 (significant), “**” refers to P=0.001-0.01 (very significant) and “***” refers to P<0.001 (extremely significant), Differences that were not statistically significant are indicated with “ns”. […] Tumor growth delay (T−C) was calculated by subtracting the median time for the control to reach the 1000 mm^3 size endpoint from that of the median time for the treated groups to reach the size endpoint.

The test system of assay [3] is Hep3B hepatocellular carcinoma tumors. In words: Hep3B (sub-dose CBL0137) study. The format is in vivo, nude mice.
Text: as §1, §2
Tumor Size Measurements: Tumor size was measured by digital caliper in two dimensions (in mm): maximum length (l) and maximum width (w) taken perpendicular to one another. The measurements were used to calculate tumor volume according to the formula: tumor volume=(l×w2)/2 (w<l). The value obtained by this formula is also equal to the mass of the tumor in mg. […]
as §5, §6

Assay [4] concerns NF-κB target genes (IL-8 and TNF). Briefly: Real-time PCR of NF-κB target genes (IL-8 and TNF) in HepG2 and Hep3B. The format is cell-based. The following applies: 2 h after exposure; basal and TNF-induced; both HCC cell lines. (In general: Quantitative PCR measures a nucleic acid by following its amplification.)
The test system of assay [5] is HepG2 hepatocellular carcinoma tumors. In words: HepG2 study: CBL0137/sorafenib against HepG2 HCC tumor engrafts. Type of assay: in vivo, nude mice.
Text: as §1, §2, §3, §4, §7, §8
Data analysis: For all study groups, maximum tumor growth inhibition was calculated for Day 11, 13, or 15 (Day X). […] For each tumor, relative tumor size was calculated relative to its size on Day 1 when treatment was initiated (i.e., fold tumor growth). To calculate the maximum tumor growth inhibition for each tumor, the following equation was used: 100−(fold tumor growth drug-treated Day X/mean fold tumor growth vehicle-treated Day X)*100. Differences in tumor sizes between groups were determined using ANOVA analysis (GraphPad Prism 5 Software) where “*” refers to P=0.01-0.05 (significant), “**” refers to P=0.001-0.01 (very significant) and “***” refers to P<0.001 (extremely significant), Differences that were not statistically significant are indicated with “ns”.

[6] abbreviates: median time to reach tumor size endpoint, treated minus control.

Like-named read-outs stand apart in the source and are kept apart here.

Consider `CNC(=O)c1cc(Oc2ccc(NC(=O)Nc3ccc(Cl)c(C(F)(F)F)c3)cc2)ccn1` [sorafenib], for which the tumor growth inhibition worked out at 67.2% in assay [1] (Day 11); 76% in assay [2] (between Days 1 and 13); 51.4% in assay [3] (between Days 1 and 15). In addition, the T/C % in assay [1] (Day 11, size relative to vehicle-treated tumors) stood at 33.4%; in assay [5] (Day 15, sorafenib 15 mg/kg po daily, CBL0137 70 mg/kg iv Q4d) it was 72.6%. Further, the “mean change in tumor volume versus Day 1” value in assay [1] (Day 11, vehicle 9.08-fold) is 2.98 fold; in assay [2] (Day 13, vehicle 13.2-fold), 3.2 fold; in assay [3] (Day 15, vehicle 21.0-fold), 10.2 fold; in assay [5] (Day 15, sorafenib 15 mg/kg po daily, CBL0137 70 mg/kg iv Q4d, vehicle 9.0-fold), 8.4 fold. Besides, the “antitumor efficacy (in words)” value in assay [1] (Hep3B study summary) was “efficacious in suppressing growth of Hep3B engrafts”; in assay [2] (HepG2 (sub-dose CBL0137) study summary), “effectively suppressed HepG2 tumor growth”; in assay [3] (dT, time to endpoint, growth delay, T/C %), “stronger beneficial effect”; in assay [5] (HepG2 study summary), “had no effect against HepG2 tumor growth”. The “median survival time (MST)” value is on record as 25 days in assay [1] (sorafenib 30 mg/kg po daily, CBL0137 60 mg/kg iv Q4d, 4 weeks, vehicle 11 days); 27.5 days in assay [2] (sorafenib 30 mg/kg po daily, CBL0137 60 mg/kg iv Q4d, 4 weeks, vehicle 13 days); 21.5 days in assay [3] (sorafenib 30 mg/kg po daily, CBL0137 50 mg/kg iv Q4d, 4 weeks, vehicle 14.5 days); 15 days in assay [5] (HepG2 study, sorafenib 15 mg/kg po daily, CBL0137 70 mg/kg iv Q4d, 4 weeks, vehicle 15 days). The “induction of p53 and p21 by CBL0137 (Western blot)” value with HepG2 and Hep3B is recorded as “blocked this induction”. Further, the “median time to reach the tumor size endpoint” value in assay [2] (by extrapolation from exponential growth curves, vehicle 12.6 days) is 29.6 days. For the same molecule, the “Tumor growth delay (T−C)” value worked out at 17 days in assay [2] (setting [6]) and 5.65 days in assay [5] (setting [6]). Also, the “expression of NF-κB target genes (IL-8 and TNF)” value in assay [4] is “have an effect on expression of NF-κB target genes, albeit less than CBL0137”. Moreover, the “tumors that grew showing some degree of regression during the course of treatment” value in assay [5] (sorafenib 15 mg/kg po daily, CBL0137 70 mg/kg iv Q4d, vehicle 0/16) is recorded as 0/14.

The values are drawn from patent US10434086B2, “Combination therapies with curaxins” (Incuron, Inc., priority 2014, dated 2019).
